Measurements as given in BindingDB's records for doi:10.1021/acs.jmedchem.9b01567 (Peking Union Medical College, 2020).

What was measured:
[1] = target: T1, Interferon regulatory factor 3 (Homo sapiens, UniProt Q14653); assay: Induction of IRF3 pathway in STING knockout human THP1 cells measured after 20 hrs by luciferase reporter gene assay
T1 sequence (Q14653 whole entry): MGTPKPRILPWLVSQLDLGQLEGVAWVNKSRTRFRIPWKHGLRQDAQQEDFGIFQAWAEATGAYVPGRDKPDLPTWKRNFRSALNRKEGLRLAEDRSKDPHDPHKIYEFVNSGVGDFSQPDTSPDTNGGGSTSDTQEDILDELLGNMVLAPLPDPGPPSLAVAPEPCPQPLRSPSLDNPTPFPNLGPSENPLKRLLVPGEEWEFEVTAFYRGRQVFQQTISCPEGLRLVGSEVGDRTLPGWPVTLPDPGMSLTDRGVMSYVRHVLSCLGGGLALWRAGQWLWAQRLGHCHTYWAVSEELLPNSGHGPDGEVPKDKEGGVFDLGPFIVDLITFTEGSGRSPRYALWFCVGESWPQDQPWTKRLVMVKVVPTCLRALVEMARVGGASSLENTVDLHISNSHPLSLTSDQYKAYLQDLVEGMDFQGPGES

[2] = Agonist activity at STING in human THP1 cells assessed as stimulation of IRF3 pathway measured after 20 hrs by luciferase reporter gene assay

Compound	EC50 [1] [µM]	EC50 [2] [µM]
CCn1nc(C)cc1C(=O)Nc1nc2cc(C(N)=O)cc(OC)c2n1CCCN	> 100	> 100
CCCn1c(NC(=O)CCc2ccccc2)nc2cc(C(N)=O)cc(OC)c21	> 100	> 100
CCn1nc(C)cc1C(=O)Nc1nc2cc(C(N)=O)cnc2n1CCCNC(=O)OC(C)(C)C	> 100	> 100
CCn1nc(C)cc1C(=O)Nc1nc2cc(C(N)=O)ccc2n1CCCNC(=O)OCc1ccccc1	> 100	> 100
COc1cc(C(N)=O)cc2nc(NC(=O)c3ccccn3)n(CCCCNC(=O)OC(C)(C)C)c12	> 100	
COc1cc(C(N)=O)cc2nc(NC(=O)C3CCCN3C)n(CCCNC(=O)OCc3ccccc3)c12 (centres undefined)	> 100	> 100
CCn1nc(C)cc1C(=O)Nc1nc2cccc(OC)c2n1CCCNC(=O)OCc1ccccc1	> 100	> 100
CCCn1c(NC(=O)c2ccc3ccccc3n2)nc2cc(C(N)=O)cc(OC)c21	> 100	> 100
CCn1nc(C)cc1C(=O)Nc1nc2cc(C(=O)OC)cnc2n1CCCNC(=O)OC(C)(C)C	> 100	> 100
CCn1nc(C)cc1C(=O)Nc1nc2cc(C(N)=O)cc(OC)c2n1CCCNC(=O)OC(C)(C)C	> 100	
CCn1nc(C)cc1C(=O)Nc1nc2cc(C(N)=O)cc(OC)c2n1CCCNC(=O)OCc1ccccc1	> 100	0.872
CCn1nccc1C(=O)Nc1nc2cc(C(N)=O)cc(OC)c2n1CCCNC(=O)OCc1ccccc1	> 100	> 100
COc1cc(C(N)=O)cc2nc(NC(=O)c3ccnn3C)n(CCCNC(=O)OCc3ccccc3)c12	> 100	> 100
CCCn1c(NC(=O)c2nccc3ccccc23)nc2cc(C(N)=O)cc(OC)c21	> 100	> 100
CCCn1c(NC(=O)c2cc(C)nn2CC)nc2cc(C(=O)OC)cc(OC)c21	> 100	> 100
COc1cc(C(N)=O)cc2nc(NC(=O)c3cccnn3)n(CCCNC(=O)OCc3ccccc3)c12	> 100	
COc1cc(C(N)=O)cc2nc(NC(=O)c3ccccn3)n(CCCNC(=O)OCc3ccccc3)c12	> 100	
COc1cc(C(N)=O)cc2nc(NC(=O)c3ccc4ccccc4n3)n(CCCNC(=O)OCc3ccccc3)c12	> 100	> 100
CCn1nc(C)cc1C(=O)Nc1nc2cc(C(=O)OC)cc(OC)c2n1CCCNC(=O)OCc1ccccc1	27.6	20.7
CCCn1c(NC(=O)c2cc3ccccc3n2C)nc2cc(C(N)=O)cc(OC)c21	> 100	> 100
CCCn1c(NC(=O)c2cncn2C)nc2cc(C(N)=O)cc(OC)c21	> 100	> 100
CCCn1c(NC(=O)c2ccnn2CC)nc2cc(C(N)=O)cc(OC)c21	> 100	> 100
CCCn1c(NC(=O)c2ccccn2)nc2cc(C(N)=O)cc(OC)c21	> 100	> 100

Compound	EC50 [1] [µM]	EC50 [2] [µM]
CCCn1c(NC(=O)c2cc(C)nn2CC)nc2cccc(OC)c21	> 100	> 100
CCCn1c(NC(=O)c2cc(C)nn2CC)nc2cc(C(N)=O)ccc21	> 100	
CCn1nc(C)cc1C(=O)Nc1nc2cc(C(=O)O)cnc2n1CCCNC(=O)OC(C)(C)C	> 100	> 100
NC(=O)c1cc(OCCCN2CCOCC2)c2c(c1)nc(NC(=O)c1cccnn1)n2CCCNC(=O)OCc1ccccc1	> 100	> 100
NC(=O)c1cc(OCCCN2CCOCC2)c2c(c1)nc(NC(=O)c1ccccn1)n2CCCNC(=O)OCc1ccccc1	> 100	> 100
COCCCOc1cc(C(N)=O)cc2nc(NC(=O)c3cccnn3)n(CCCNC(=O)OCc3ccccc3)c12	> 100	> 100
COCCCOc1cc(C(N)=O)cc2nc(NC(=O)c3ccccn3)n(CCCNC(=O)OCc3ccccc3)c12	> 100	
COc1cc(C(N)=O)cc2nc(NC(=O)c3cccnn3)n(CCCCNC(=O)OC(C)(C)C)c12	> 100	
CCn1nc(C)cc1C(=O)Nc1nc2cc(C(N)=O)cc(OC)c2n1CCCNC(=O)CCc1cc(OC)c(OC)c(OC)c1	> 100	> 100
COc1cc(C(N)=O)cc2nc(NC(=O)c3cncn3C)n(CCCNC(=O)OCc3ccccc3)c12	> 100	> 100
COc1cc(C(N)=O)cc2nc(NC(=O)CCc3ccccc3)n(CCCNC(=O)OCc3ccccc3)c12	> 100	> 100
COc1cc(C(N)=O)cc2nc(NC(=O)c3cccn3C)n(CCCNC(=O)OCc3ccccc3)c12	> 100	> 100
COc1cc(C(N)=O)cc2nc(NC(=O)C3CCN(C)CC3)n(CCCNC(=O)OCc3ccccc3)c12	> 100	> 100
CCn1nc(C)cc1C(=O)Nc1nc2cc(C(N)=O)cc(OC)c2n1CCCNC(=O)C(C)(C)C	> 100	27.5
CCn1nc(C)cc1C(=O)Nc1nc2cc(C(N)=O)cc(OC)c2n1CCCNC(=O)CCc1cccnc1	> 100	39.5
CCn1nc(C)cc1C(=O)Nc1nc2cc(C(N)=O)cc(OCCCN3CCOCC3)c2n1CCCNC(=O)OCc1ccccc1	> 100	
CCn1nc(C)cc1C(=O)Nc1nc2cc(C(N)=O)cc(OC)c2n1CCCNC(=O)CCC(=O)O	> 100	> 100
CCn1nc(C)cc1C(=O)Nc1nc2cc(C(N)=O)cc(OC)c2n1CCCNC(=O)CCC(=O)OC	> 100	> 100
CCCn1c(NC(=O)c2cccnn2)nc2cc(C(N)=O)cc(OC)c21	> 100	> 100
COc1cc(C(N)=O)cc2nc(NC(=O)c3nccc4ccccc34)n(CCCNC(=O)OCc3ccccc3)c12	> 100	> 100
CCCn1c(NC(=O)c2ccnn2C)nc2cc(C(N)=O)cc(OC)c21	> 100	> 100
CCn1nc(C)cc1C(=O)Nc1nc2cc(C(N)=O)cc(OC)c2n1CCCNC(=O)c1ccccc1	> 100	> 100
COc1cc(C(N)=O)cc2nc(NC(=O)c3cc4ccccc4n3C)n(CCCNC(=O)OCc3ccccc3)c12	> 100	> 100
